{
  "source": "patent US12303474B2",
  "about": "“S-enantiomerically enriched compositions of beta blockers for treating amyotrophic lateral sclerosis” (priority 2013, dated 2025);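 further: dosing began after ALS onset in G93A SOD1 mice, with survival as the endpoint, defined humanely as the animal failing to regain upright posture within 30 s when placed sideways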",
  "test_system": "G93A SOD1 B6SJL hybrid (G93A) model",
  "settings": "3 mg/kg/day; placebo 28 days",
  "data": [
    {"smiles": "CC(C)NCC(O)COc1cccc2[nH]ccc12", "note": "(stereo not shown) [S-pindolol]", "values": [
      {"measurement": "Median survival after onset of ALS symptoms", "result": 31, "unit": "days"}
    ]}
  ]
}
